The values below are quoted from earlier work in patent US4645756A, “[α,ω-bis(diphenylphosphino)hydrocarbon]bis[(thiosugar)gold] and bis[(selenosugar)gold] derivatives, pharmaceutical compositions and method of use” (priority 1985, dated 1987).

For this series the following is noted: Struck et al. 1966; cited from earlier work.

`c1ccc(P(CCP(c2ccccc2)c2ccccc2)c2ccccc2)cc1` [ethylenebis(diphenylphosphine)]: the cytotoxic activity entry is listed as “cytotoxic activity”.
